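48-hour exposure; five concentrations; linearly interpolated endpoints. The concentration for 50% growth inhibition is given as GI50. TGI is the concentration that stops growth completely.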
Tests used:
Assay in all cases: growth of human tumour cells (NCI), 48 h
[1] = test system: TK-10 renal
[2] = test system: CCRF-CEM leukemia
[3] = test system: RXF 393 renal
[4] = test system: OVCAR-3 ovarian
[5] = test system: OVCAR-4 ovarian
[6] = test system: OVCAR-8 ovarian
[7] = test system: HCT-15 colon
[8] = test system: SN12C renal
[9] = test system: SK-MEL-28 melanoma
[10] = test system: DU-145 prostate

Compound | TGI [1] [µM] | TGI [2] [µM] | TGI [3] [µM] | TGI [4] [µM] | TGI [5] [µM] | TGI [6] [µM] | TGI [7] [µM] | TGI [8] [µM] | TGI [9] [µM] | TGI [10] [µM] | GI50 [1] [µM] | GI50 [2] [µM] | GI50 [3] [µM] | GI50 [4] [µM] | GI50 [5] [µM] | GI50 [6] [µM] | GI50 [7] [µM] | GI50 [8] [µM] | GI50 [9] [µM] | GI50 [10] [µM]
C=CCc1cc(C(Cc2ccccc2)NC(C)C)cc(OCc2ccccc2)c1OCc1ccccc1 (stereo not given) | 30.8 | 33.5 | 30.4 | 30.4 | 33.1 | 31.5 | 30.7 | 29.4 | 30.2 | 29.7 | – | – | – | – | – | – | – | – | – | –
NC(Cc1ncccn1)C(=O)O (stereo not given) | > 100 | > 100 | > 100 | > 100 | > 100 | > 100 | > 100 | > 100 | > 100 | > 100 | – | – | – | – | – | – | – | – | – | –
O=C(NCCNc1nccc(-c2c(-c3cccc(O)c3)nc3sccn23)n1)c1ccccc1 | 37.1 | 34.1 | 22.2 | 64.8 | 84.6 | 78.8 | 62.2 | 38.4 | 99.1 | 68.7 | 11.7 | 3.38 | 4.14 | 12.3 | 13.9 | 11.1 | 18.8 | 9.04 | 0.336 | 19.7
CC(C)(C)OC(=O)CN1CCN(CC(=O)N2CCN(C(=O)OCc3ccccc3)CC2)CCN(CC(=O)OC(C)(C)C)CCN(CC(=O)N2CCN(C(=O)OCc3ccccc3)CC2)CC1 | 15.9 | 3.51 | 17 | 13.1 | 16.2 | 16.8 | 19.1 | 16.3 | 16.2 | 20.1 | – | – | – | – | – | – | – | – | – | –
O=S(=O)(/N=C(\NO)Nc1ccc(Cl)cc1)c1ccccc1 | > 61.6 | > 100 | 40 | 8.89 | > 61.2 | > 75 | > 100 | 35.2 | 33.9 | > 60.3 | – | – | – | – | – | – | – | – | – | –
CCn1c2ccccc2c2ccc(C3C(C(=O)OC)=C(C)NC(C)=C3C(=O)OC)cc21 | > 100 | > 100 | 49.4 | > 100 | > 100 | > 100 | > 100 | > 100 | > 100 | > 100 | – | – | – | – | – | – | – | – | – | –
CC(C)(C)C1=CC(=C2C=Cc3ccccc3O2)C=C(C(C)(C)C)C1=O | 16.5 | 6.12 | 7.71 | 7.71 | 16.8 | > 51.8 | 19.3 | 15.3 | 22.2 | 20.8 | – | – | – | – | – | – | – | – | – | –
CSc1c(CC(=O)Nc2ccc(Cl)cc2)n(Cc2ccccc2)c2ccccc12 | 57.4 | > 100 | 30.1 | > 100 | 35.5 | 41 | > 100 | > 100 | > 100 | > 100 | – | – | – | – | – | – | – | – | – | –
CCN(CC)CCCNc1[nH]ncc2c(C)c3nc4ccc(OC)cc4c3cc12 | 9.16 | 2 | 3.37 | 2.99 | 2.75 | 2.01 | 36.3 | 1.77 | 2.01 | 8.24 | – | – | – | – | – | – | – | – | – | –
CNC(=O)OC(COC)CN1CCN(c2ccccc2C)CC1 (stereo not given) | > 10 | > 10 | > 10 | > 10 | > 10 | > 10 | > 10 | > 10 | > 10 | > 10 | – | – | – | – | – | – | – | – | – | –
ClCc1cccc(CSc2ncnc3c2ncn3Cc2cccc(CCl)c2)c1 | 3.61 | 6.95 | 2.4 | 3.31 | 10.6 | 6.24 | 3.42 | 7.33 | 3.08 | 3.3 | 1.93 | 1.6 | 1.05 | 1.86 | 2.38 | 2.11 | 1.71 | 2.02 | 1.59 | 1.85
COC(=O)/C=C\C(C#N)(C#N)N=Cc1sccc1C | 4.12 | 4.19 | 4.22 | 16 | 10.3 | 8.69 | 4.57 | 22.3 | 20.1 | 13.4 | – | – | – | – | – | – | – | – | – | –
COC(=O)[C@@H]1CC(C(CN)c2cn(C(=O)OC(C)(C)C)c3ccccc23)C(=O)N1C(=O)OC(C)(C)C (stereo not given in full) | > 100 | 34.8 | 46.2 | 59.8 | 66.6 | 55.8 | > 100 | 32.9 | 31.4 | > 100 | – | – | – | – | – | – | – | – | – | –
O=[N+]([O-])/C(C(Cl)=C(Cl)Cl)=C(\N1CCCCC1)n1nnc2ccccc21 | 35.5 | 14.5 | 43.6 | 32.6 | > 100 | 42.6 | 39.1 | 33.7 | 48.3 | 37.7 | – | – | – | – | – | – | – | – | – | –
O=S(=O)(O)c1ccc2c(N=Nc3ccc(Cl)cc3)c(O)ccc2c1 | > 100 | > 100 | > 100 | > 100 | > 100 | > 100 | > 100 | > 100 | > 100 | > 100 | – | – | – | – | – | – | – | – | – | –
CC1(C)OC[C@@H](O)[C@H](Br)CO1 | > 100 | > 100 | > 100 | > 100 | > 100 | > 100 | > 100 | > 100 | > 100 | > 100 | – | – | – | – | – | – | – | – | – | –

Compound | TGI [1] [µM] | TGI [2] [µM] | TGI [3] [µM] | TGI [4] [µM] | TGI [5] [µM] | TGI [6] [µM] | TGI [7] [µM] | TGI [8] [µM] | TGI [9] [µM] | TGI [10] [µM] | GI50 [1] [µM] | GI50 [2] [µM] | GI50 [3] [µM] | GI50 [4] [µM] | GI50 [5] [µM] | GI50 [6] [µM] | GI50 [7] [µM] | GI50 [8] [µM] | GI50 [9] [µM] | GI50 [10] [µM]
CCOC(=O)c1cc(C2CCN(c3ccccc3)C2=O)c(C(=O)/C=C(/C)N)[nH]1 (stereo not given) | > 100 | > 100 | 78.6 | > 100 | > 100 | > 100 | > 100 | 63.7 | > 100 | > 100 | – | – | – | – | – | – | – | – | – | –
CC[P+]1(c2ccccc2)[C@@H](C)CC[C@@H]1C | > 100 | > 100 | > 100 | > 100 | > 100 | > 100 | > 100 | > 100 | > 100 | > 100 | – | – | – | – | – | – | – | – | – | –
C[N+]1(CCC[N+]2(C)CC3C4C=CC(CC4)C3C2)CCOCC1 (stereo not given) | > 100 | > 100 | > 100 | > 100 | > 100 | > 100 | > 100 | > 100 | > 100 | > 100 | – | – | – | – | – | – | – | – | – | –
COc1cc(NC=C2C(=O)OC(C)(C)OC2=O)c(OC)c(C)c1OC | > 100 | > 100 | > 100 | > 100 | > 100 | > 100 | > 100 | > 100 | > 100 | > 100 | – | – | – | – | – | – | – | – | – | –
CC1CN=C(c2cccc(-c3nc(-c4cccc(C5=NCC(C)N5)c4)nc(N(C)C)n3)c2)N1 (stereo not given) | 9.76 | 3.45 | 11.8 | 4.19 | 2.72 | 11.6 | 24.7 | 3.46 | 13.2 | 7.14 | – | – | – | – | – | – | – | – | – | –
C=CCN(c1cc(OC)c2[nH]c(C(=O)OCC)c(C)c2c1[N+](=O)[O-])S(C)(=O)=O | > 100 | > 100 | 45.9 | 80.2 | > 100 | > 100 | > 100 | 56.1 | > 100 | > 100 | – | – | – | – | – | – | – | – | – | –
C=CCCCCOC1C=CC(O)C(CO)O1 (stereo not given) | > 100 | > 100 | > 100 | > 100 | > 100 | > 100 | > 100 | > 100 | > 100 | > 100 | – | – | – | – | – | – | – | – | – | –
CCOC(=O)c1c(N2CCCC2)ncn(C)c1=S | > 100 | > 100 | > 100 | > 100 | > 100 | > 100 | > 100 | > 100 | > 100 | > 100 | – | – | – | – | – | – | – | – | – | –
O=C(NNS(=O)(=O)c1ccccc1)c1cccnc1 | > 100 | > 100 | > 100 | > 100 | > 100 | > 100 | > 100 | > 100 | > 100 | > 100 | – | – | – | – | – | – | – | – | – | –
COc1ccc2c3c1OC1C34CCN(C)C(C2)C4=CC(I)C1(OC)OC (stereo not given) | 27.8 | 5.87 | 23.1 | 18.5 | 30 | 16.1 | 27.8 | 18.9 | 25.9 | 22.6 | – | – | – | – | – | – | – | – | – | –
COc1ccc(N2C(=O)C3c4[nH]c5ccc(F)cc5c4C4CCC(C(C)(C)C)CC4C3C2=O)cc1 (stereo not given) | > 10 | > 10 | > 10 | > 10 | > 10 | > 10 | > 10 | > 10 | > 10 | > 10 | – | – | – | – | – | – | – | – | – | –
O=C(Nc1cccc2ccccc12)c1ccccc1 | > 100 | > 100 | > 100 | > 100 | > 100 | > 100 | > 100 | > 100 | > 100 | > 100 | – | – | – | – | – | – | – | – | – | –
CCn1c(=O)c2nc(SC)sc2n(-c2ccccc2)c1=O | > 100 | > 100 | > 100 | > 100 | > 100 | > 100 | > 100 | > 100 | > 100 | > 100 | – | – | – | – | – | – | – | – | – | –
COP(=O)(OC)/C(=C/c1cn(C(c2ccccc2)(c2ccccc2)c2ccccc2)cn1)NC=O | 46.3 | > 100 | 35.1 | 30.2 | 51.9 | 60.4 | 99.4 | 46.4 | 93.6 | > 100 | – | – | – | – | – | – | – | – | – | –
COc1ccc2nc3n(c2c1)C(=O)c1ccccc1-3 | > 100 | > 100 | > 100 | > 100 | > 100 | > 100 | > 100 | > 100 | > 100 | > 100 | – | – | – | – | – | – | – | – | – | –
CCOC(=O)C(C)c1nc2ccc(C(F)(F)F)cc2[nH]c1=O (stereo not given) | > 100 | > 100 | > 100 | > 100 | > 100 | > 100 | > 100 | > 100 | > 100 | > 100 | – | – | – | – | – | – | – | – | – | –
